Measurements reported in US12077503B2, “Substituted cyclic amides and their use as herbicides” (FMC CORPORATION, priority 2015, dated 2024).

Tests used:
Assay type in all cases: in vivo
[1] = test system: giant foxtail (Setaria faberii); assay: Test A postemergence
Method in brief: (§1)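 In a loam soil and sand blend, planted seeds got a preemergence directed soil spray, and young plants at the one- to two-leaf stage, 2–10 cm high, got a postemergence application; ~10 d greenhouse hold; injury rated visually, 0 = none, 100 = complete control.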

Kochia (Kochia scoparia) [2] = assay: Test A postemergence
Method in brief: as §1

[3] = test system: ragweed (common ragweed, Ambrosia elatior); assay: Test A postemergence
Method in brief: as §1

[4] = test system: Galium (catchweed bedstraw, Galium aparine); assay: Test A postemergence
Method in brief: as §1

[5] = test system: blackgrass (Alopecurus myosuroides); assay: Test A postemergence; details: postemergence
Method in brief: as §1

[6] = test system: wheat (Triticum aestivum); assay: Test A postemergence
Method in brief: as §1

[7] = test system: barnyardgrass (Echinochloa crus-galli); assay: Test A postemergence; details: postemergence
Method in brief: as §1

[8] = test system: ryegrass, Italian (Italian ryegrass, Lolium multiflorum); assay: Test A postemergence
Method in brief: as §1

[9] = test system: pigweed (Amaranthus retroflexus); assay: Test A postemergence
Method in brief: as §1

corn (Zea mays) = assay: Test A postemergence; details: postemergence
Method in brief: as §1

[10] = test system: giant foxtail (Setaria faberii); assay: Test A preemergence
Method in brief: as §1

Kochia (Kochia scoparia) [11] = assay: Test A preemergence
Method in brief: as §1

[12] = test system: ragweed (common ragweed, Ambrosia elatior); assay: Test A preemergence; details: Preemergence
Method in brief: as §1

[13] = test system: barnyardgrass (Echinochloa crus-galli); assay: Test A preemergence
Method in brief: as §1

[14] = test system: ryegrass, Italian (Italian ryegrass, Lolium multiflorum); assay: Test A preemergence; details: Preemergence
Method in brief: as §1

[15] = test system: pigweed (Amaranthus retroflexus); assay: Test A preemergence; details: Preemergence
[16] = test system: ducksalad (Heteranthera limosa); assay: Test B flooded paddy test; details: Flood, 250 g ai/ha; 0 to 100 scale where 0 is no effect and 100 is complete control; 13 to 15 d
Method in brief: (§2)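 Plants at 2-leaf stage flooded to 3 cm above soil, with compounds applied directly to paddy water and that depth maintained. Plants kept in greenhouse 13–15 d. Visual rating versus controls on a 0 (no effect) to 100 (complete control) scale.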

[17] = test system: sedge, umbrella (small-flower umbrella sedge, Cyperus difformis); assay: Test B flooded paddy test; details: Flood, 250 g ai/ha; 0 to 100 scale where 0 is no effect and 100 is complete control; 13 to 15 d
Method in brief: as §2

rice (Oryra sativa) = assay: Test B flooded paddy test; details: Flood, 250 g ai/ha; 0 to 100 scale where 0 is no effect and 100 is complete control; 13 to 15 d
Method in brief: as §2

[18] = test system: barnyardgrass (Echinochloa crus-galli); assay: Test B flooded paddy test; details: Flood, 250 g ai/ha; 0 to 100 scale where 0 is no effect and 100 is complete control; 13 to 15 d
Method in brief: as §2

[19] = 125 g ai/ha, postemergence, visual injury rating on 0 to 100 scale (0 no effect, 100 complete control), approx. 10 d
[20] = Postemergence, 500 g ai/ha, 0 to 100 scale where 0 is no effect and 100 is complete control
[21] = 125 g ai/ha, visual injury rating on 0 to 100 scale (0 no effect, 100 complete control), approx. 10 d
[22] = 500 g ai/ha, 0 to 100 scale, 0 no effect, 100 complete control
[23] = 125 g ai/ha, preemergence, 0 to 100 scale (0 no effect, 100 complete control)
[24] = Preemergence, 500 g ai/ha, visual injury approx. 10 d
[25] = 125 g ai/ha, visual injury after approximately 10 d, 0 to 100 scale where 0 is no effect and 100 is complete control
[26] = 500 g ai/ha, visual injury approx. 10 d

CN1CC(c2ccc(C(F)(F)F)cc2F)C(C(=O)Nc2ccccc2F)C1=O (stereo not drawn) [Compound 476]
Foxtail, Giant plant response rating [1, 19]: 80 | Plant response rating, Foxtail, Giant [1, 20]: 80 | Kochia plant response rating (Kochia (Kochia scoparia) [2]; [19]): 30 | Plant response rating, Kochia (Kochia (Kochia scoparia) [2]; [20]): 60 | Ragweed plant response rating [3, 19]: 0 | Plant response rating, Ragweed [3, 20]: 0 | Galium plant response rating [4, 19]: 30 | Plant response rating, Galium [4, 20]: 60 | Blackgrass plant response rating [5, 21]: 20 | Plant response rating, Blackgrass [5, 22]: 50 | Wheat plant response rating [6, 19]: 0 | Plant response rating, Wheat [6, 20]: 30 | Barnyardgrass plant response rating [7, 21]: 90 | Plant response rating, Barnyardgrass [7, 22]: 90 | Ryegrass, Italian plant response rating [8, 19]: 30 | Plant response rating, Ryegrass, Italian [8, 20]: 40 | Pigweed plant response rating [9, 19]: 20 | Plant response rating, Pigweed [9, 20]: 40 | Corn plant response rating (corn (Zea mays); [21]): 0 | Plant response rating, Corn (corn (Zea mays); [22]): 30 | Plant response rating, Foxtail, Giant [10, 23]: 90 | Foxtail, Giant plant response rating (0 to 100 scale, 0 is no effect, 100 is complete control) [10, 24]: 100 | Plant response rating, Kochia (Kochia (Kochia scoparia) [11]; [23]): 50 | Kochia plant response rating (0 to 100 scale, 0 is no effect, 100 is complete control) (Kochia (Kochia scoparia) [11]; [24]): 70 | Plant response rating, Ragweed [12, 25]: 0 | Ragweed plant response rating (0 to 100 scale, 0 is no effect, 100 is complete control) [12, 26]: 60 | Plant response rating, Barnyardgrass [13, 23]: 90 | Barnyardgrass plant response rating (0 to 100 scale, 0 is no effect, 100 is complete control) [13, 24]: 90 | Plant response rating, Ryegrass, Italian [14, 25]: 0 | Ryegrass, Italian plant response rating (0 to 100 scale, 0 is no effect, 100 is complete control) [14, 26]: 40 | Plant response rating, Pigweed [15, 25]: 30 | Pigweed plant response rating (0 to 100 scale, 0 is no effect, 100 is complete control) [15, 26]: 80 | Plant response rating, Ducksalad [16]: 80 | Plant response rating, Sedge, Umbrella [17]: 0 | Plant response rating, Rice (rice (Oryra sativa)): 0 | Plant response rating, Barnyardgrass [18]: 0
